# Target: glucosylceramide synthase (GCS) enzyme in Golgi preparations from human A375 malignant melanoma skin cells (Homo sapiens (Human), UniProt Q16739)
# Assay: UDP-Glo glucosylceramide synthase biochemical assay
# Conditions: 1.5 μg crude golgi preparation; C6 ceramide and UDP-glucose at 2×Km; 20 h incubation at room temperature; luminescence
# From the text: UDP-Glo™ Glucosylceramide Synthase Biochemical Assay
# A UDP-Glo™ glucosylceramide synthase biochemical assay was utilized to evaluate the effect of test compounds on the activity of endogenous levels of GCS enzyme contained within Golgi preparations isolated from human A375 malignant melanoma skin cells. The UDP-Glo™ glucosylceramide synthase assay uses UDP-Glucose as a nucleotide-glycosyl donor and ceramide as substrate acceptor molecules. In the reaction, glucosylceramide synthase (GCS) transfers glucose from UDP-Glucose to ceramide. Glucosylceramide and UDP are released as products.
# Using Promega's UDP-Glo™ Glycosyltransferase assay kit (Promega Corporation, Madison, WI, USA (Promega)), GCS activity was indirectly measured by detecting the amount of UDP produced. An aliquot of GCS enzyme (1.5 μg crude golgi preparation, total protein) and titrated test compound were aliquoted to each well and incubated for 30 minutes at room temperature. Substrate mixture was prepared by mixing C6 ceramide (Avanti Polar Lipids, Alabaster, AL USA (Avanti)) (micelles prepared at 0.6 mM in 0.6 mM DOPC) and UDP-glucose (20 μM; Promega), at concentrations equivalent to 2×Km, in assay buffer (25 mM HEPES (pH 7.5), 50 mM KCl, 5 mM MgCl2). An equivalent volume of substrate mixture was then added to each well. Following a 20 h incubation at room temperature to allow for GCS turnover of substrate, an equal volume of UDP detection reagent (Promega) was added to each well and incubated for an additional 75 minutes at room temperature to simultaneously convert the accumulated UDP product into ATP and generate light in a luciferase reaction. The generated light was detected using a luminometer. […] luminescence values (RLUs) were normalized to mean “min” and “max” effects, as determined on each plate. “Min” was defined as the mean of the values of the wells treated with vehicle (DMSO) and which represent 0% inhibition; “max” was defined as the mean of the values of the wells treated with a reference inhibitor and which represent the 100% effect. Values for % Emax and EC50 were determined by best-fitting the normalized data to a curve in Activity Base along a four-parameter logistic nonlinear regression (4PL) model (based on the Levenberg-Marquardt algorithm and defined by the equation below): […]
# where: n is 4PMin (bottom of the curve); m is 4PMax (top of the curve); i is IP (inflection point of curve); andp is slope. See Levenberg, K., “A Method for the Solution of Certain Problems in Least Squares”, Quart. Appl. Math. 2, (1944), pp 164-168 and Marquardt, D., “An Algorithm for Least Squares Estimation on Nonlinear Parameters”, SIAM J. Appl. Math. 11, (1963) pp 431-441.
# Sequence of glucosylceramide synthase (GCS) enzyme in Golgi preparations from human A375 malignant melanoma skin cells (Q16739 whole entry): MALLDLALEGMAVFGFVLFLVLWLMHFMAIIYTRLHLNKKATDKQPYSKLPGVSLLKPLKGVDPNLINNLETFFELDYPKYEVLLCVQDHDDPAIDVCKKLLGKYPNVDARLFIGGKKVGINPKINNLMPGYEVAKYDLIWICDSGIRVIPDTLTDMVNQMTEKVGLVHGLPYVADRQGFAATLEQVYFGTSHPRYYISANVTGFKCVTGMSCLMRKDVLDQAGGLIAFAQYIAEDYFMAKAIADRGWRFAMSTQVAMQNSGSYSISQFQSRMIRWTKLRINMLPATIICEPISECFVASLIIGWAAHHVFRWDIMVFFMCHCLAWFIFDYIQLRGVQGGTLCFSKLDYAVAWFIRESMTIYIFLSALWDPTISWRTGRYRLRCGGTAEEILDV
row,Structure (SMILES),EC50 [nM]
1,"O=C(N1CCN2CCC1CC2)n1nc(-c2ccc3c(c2)CCO3)c2c1CCC2 [Compound 43, 1,4-diazabicyclo[3.2.2]nonan-4-yl-[3-(2,3-dihydrobenzofuran-5-yl)-5,6-dihydro-4H-cyclopenta[c]pyrazol-1-yl]methanone]",0.5
2,"O=C(N1CCN2CCC1CC2)n1nc(OC2CCCC2)c2c1CCC2 [Compound 26, (1,4-diazabicyclo[3.2.2]nonan-4-yl)(3-(cyclopentyloxy)-5,6-dihydrocyclopenta[c]pyrazol-1(4H)-yl)methanone]",23.3
3,"CC1CCOc2c1c(-c1ccc(F)cc1)nn2C(=O)N1CCN2CCC1CC2 (stereo not drawn) [Compound 62, R and S-(1,4-diazabicyclo[3.2.2]nonan-4-yl)(3-(4-fluorophenyl)-4-methyl-5,6-dihydropyrano[2,3-c]pyrazol-1(4H)-yl)methanone]",7.7
4,"Cc1cccc(-c2nn(C(=O)N3CCN4CCC3CC4)c3c2COCC3)c1F [Compound 39, (1,4-diazabicyclo[3.2.2]nonan-4-yl)(3-(2-fluoro-3-methylphenyl)-6,7-dihydropyrano[4,3-c]pyrazol-1(4H)-yl)methanone]",0.3
5,"COc1ncc(-c2nn(C(=O)N3CCN4CCC3CC4)c3c2C[C@@H]2C[C@H]32)cc1Cl [Compound 8, (1,4-diazabicyclo[3.2.2]nonan-4-yl)((4aS,5aS)-3-(5-chloro-6-methoxypyridin-3-yl)-4,4a,5,5a-tetrahydro-1H-cyclopropa[4,5]cyclopenta[1,2-c]pyrazol-1-yl)methanone]",0.1
6,"CC1(C)COc2c(-c3ccc(F)cc3)nn(C(=O)N3CCN4CCC3CC4)c21 [Compound 17, (1,4-diazabicyclo[3.2.2]nonan-4-yl)(3-(4-fluorophenyl)-6,6-dimethyl-5,6-dihydro-1H-furo[3,2-c]pyrazol-1-yl)methanone]",10.1
7,"Cc1ccc(-c2nn(C(=O)N3CCN4CCC3CC4)c3c2CCC3)cc1 [Compound 31, 1,4-diazabicyclo[3.2.2]nonan-4-yl-[3-(p-tolyl)-5,6-dihydro-4H-cyclopenta[c]pyrazol-1-yl]methanone]",0.2
8,"COc1ncc(-c2nn(C(=O)N3CCN4CCC3CC4)c3c2CCOC3)cc1Cl [Compound 32, (1,4-diazabicyclo[3.2.2]nonan-4-yl)(3-(5-chloro-6-methoxypyridin-3-yl)-4,7-dihydropyrano[3,4-c]pyrazol-1(5H)-yl)methanone]",7.6
9,"O=C(N1CCN2CCC1CC2)n1nc(-n2nc(C(F)(F)F)ccc2=O)c2c1CCOC2 [Compound 25, 2-(1-(1,4-diazabicyclo[3.2.2]nonane-4-carbonyl)-1,4,6,7-tetrahydropyrano[4,3-c]pyrazol-3-yl)-6-(trifluoromethyl)pyridazin-3(2H)-one]",27
10,"O=C(N1CCN2CCC1CC2)n1nc(C23CCCC2C3)c2c1CCC2 (single isomer, unassigned) [Compound 9, R or S-(3-(bicyclo[3.1.0]hexan-1-yl)-5,6-dihydrocyclopenta[c]pyrazol-1(4H)-yl)(1,4-diazabicyclo[3.2.2]nonan-4-yl)methanone]",2.4
11,"O=C(N1CCN2CCC1CC2)n1nc(-c2ccc(F)c(Cl)c2)c2c1COC2 [Compound 50, (1,4-diazabicyclo[3.2.2]nonan-4-yl)(3-(3-chloro-4-fluorophenyl)-4,6-dihydro-1H-furo[3,4-c]pyrazol-1-yl)methanone]",14.9
12,"O=C(N1CCN2CCC1CC2)n1nc(-n2cc(Cl)cn2)c2c1COCC2 [Compound 55, (1,4-diazabicyclo[3.2.2]nonan-4-yl)(3-(4-chloro-1H-pyrazol-1-yl)-4,7-dihydropyrano[3,4-c]pyrazol-1(5H)-yl)methanone]",10.4
13,"COc1nccc(-c2nn(C(=O)N3CCN4CCC3CC4)c3c2CCC3)c1Cl [Compound 40, [3-(3-chloro-2-methoxy-4-pyridyl)-5,6-dihydro-4H-cyclopenta[c]pyrazol-1-yl]-(1,4-diazabicyclo[3.2.2]nonan-4-yl)methanone]",1.2
14,"COc1ccc(-c2nn(C(=O)N3CCN4CCC3CC4)c3c2CCC3)cc1 [Compound 4, 1,4-diazabicyclo[3.2.2]nonan-4-yl-[3-(4-methoxyphenyl)-5,6-dihydro-4H-cyclopenta[c]pyrazol-1-yl]methanone]",0.2
15,"COc1ncc(-c2nn(C(=O)N3CCN4CCC3CC4)c3c2CCC3)cc1Cl [Compound 6, [3-(5-chloro-6-methoxy-3-pyridyl)-5,6-dihydro-4H-cyclopenta[c]pyrazol-1-yl]-(1,4-diazabicyclo[3.2.2]nonan-4-yl)methanone]",0.4
16,"O=C(N1CCN2CCC1CC2)n1nc(-c2cc(F)c(F)cc2F)c2c1CCOC2 [Compound 45, (1,4-diazabicyclo[3.2.2]nonan-4-yl)(3-(2,4,5-trifluorophenyl)-6,7-dihydropyrano[4,3-c]pyrazol-1(4H)-yl)methanone]",2.3
17,"O=C(N1CCN2CCC1CC2)n1nc(-c2cc(F)c(F)c(F)c2)c2c1CCOC2 [Compound 46, (1,4-diazabicyclo[3.2.2]nonan-4-yl)(3-(3,4,5-trifluorophenyl)-6,7-dihydropyrano[4,3-c]pyrazol-1(4H)-yl)methanone]",4.6
18,"O=C(N1CCN2CCC1CC2)n1nc(-c2ccc(C(F)(F)F)cc2)c2c1COCC2 [Compound 30, (1,4-diazabicyclo[3.2.2]nonan-4-yl)(3-(4-(trifluoromethyl)phenyl)-4,7-dihydropyrano[3,4-c]pyrazol-1(5H)-yl)methanone]",2.7
19,"COc1ccc(F)c(-c2nn(C(=O)N3CCN4CCC3CC4)c3c2CCC3)c1 [Compound 44, 1,4-diazabicyclo[3.2.2]nonan-4-yl-[3-(2-fluoro-5-methoxy-phenyl)-5,6-dihydro-4H-cyclopenta[c]pyrazol-1-yl]methanone]",1.7
20,"O=C(N1CCN2CCC1CC2)n1nc(-c2ccc(F)cc2)c2c1CC(O)C2 (stereo not drawn) [Compound 21, R and S-(1,4-diazabicyclo[3.2.2]nonan-4-yl)(3-(4-fluorophenyl)-5-hydroxy-5,6-dihydrocyclopenta[c]pyrazol-1(4H)-yl)methanone]",19.3
21,"O=C(N1CCN2CCC1CC2)n1nc(-n2cc(C(F)(F)F)cn2)c2c1CCOC2 [Compound 59, (1,4-diazabicyclo[3.2.2]nonan-4-yl)(3-(4-(trifluoromethyl)-1H-pyrazol-1-yl)-6,7-dihydropyrano[4,3-c]pyrazol-1(4H)-yl)methanone]",3.1
22,"O=C(N1CCN2CCC1CC2)n1nc(C2=CCCC2)c2c1CCC2 [Compound 37, [3-(cyclopenten-1-yl)-5,6-dihydro-4H-cyclopenta[c]pyrazol-1-yl]-(1,4-diazabicyclo[3.2.2]nonan-4-yl)methanone]",3.6
23,"Cc1cnn(-c2nn(C(=O)N3CCN4CCC3CC4)c3c2CCC3)c1 [Compound 57, (1,4-diazabicyclo[3.2.2]nonan-4-yl)(3-(4-methyl-1H-pyrazol-1-yl)-5,6-dihydrocyclopenta[c]pyrazol-1(4H)-yl)methanone]",9.2
24,"O=C(N1CCN2CCC1CC2)n1nc(N2CCC3(CC2)CC3)c2c1COCC2 [Compound 52, (3-(6-azaspiro[2.5]octan-6-yl)-4,7-dihydropyrano[3,4-c]pyrazol-1(5H)-yl)(1,4-diazabicyclo[3.2.2]nonan-4-yl)methanone]",18.3
25,"CC1CCc2c(-c3ccc(F)cc3)nn(C(=O)N3CCN4CCC3CC4)c2O1 (stereo not drawn) [Compound 63, R and S-(1,4-diazabicyclo-[3.2.2]nonan-4-yl)(3-(4-fluorophenyl)-6-methyl-5,6-dihydropyrano[2,3-c]pyrazol-1(4H)-yl)methanone]",17.5
26,"O=C(N1CCN2CCC1CC2)n1nc(N2CCC(F)(F)CC2)c2c1CCC2 [Compound 51, (1,4-diazabicyclo[3.2.2]nonan-4-yl)(3-(4,4-difluoropiperidin-1-yl)-5,6-dihydrocyclopenta[c]pyrazol-1(4H)-yl)methanone]",7
27,"CC1(C)CCCN(c2nn(C(=O)N3CCN4CCC3CC4)c3c2CCC3)C1 [Compound 24, (1,4-diazabicyclo[3.2.2]nonan-4-yl)(3-(3,3-dimethylpiperidin-1-yl)-5,6-dihydrocyclopenta[c]pyrazol-1(4H)-yl)methanone]",7.8
28,"CC1(C)Cc2c(c(-c3ccc(F)cc3)nn2C(=O)N2CCN3CCC2CC3)CO1 [Compound 18, (1,4-diazabicyclo[3.2.2]nonan-4-yl)(3-(4-fluorophenyl)-6,6-dimethyl-6,7-dihydropyrano[4,3-c]pyrazol-1(4H)-yl)methanone]",9.8

# Source: patent US20250026762A1, “FUSED PYRAZOLE UREA ANALOGS AS GLUCOSYLCERAMIDE SYNTHASE INHIBITORS” (Merck Sharp & Dohme LLC, priority 2021, published 2025)
